The structures appear in SMILES notation.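 Assay format: 96-well plates, 48-hour exposure. At the GI50, growth is halved.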 Active and inactive are the calls of the source. Cut-off read from the data, not from the text of the source: active = GI50 up to about 1.1 µM and inactive = higher.

Some test systems named below: 786-0; CAKI-1; EKVX; HCT-15; IGROV-1; KM12; LOX IMVI; M14; MDA-MB-231; MDA-MB-435; MDA-N; NCI-H23; NCI-H460; OVCAR-3; SF-539; SK-MEL-2; SN12C; SW-620; T47D; UACC-62.
Common to all, as to experiment: growth of human tumour cells (NCI), 48 h

As to `O=C1c2ccccc2C(=O)c2c1ccc1conc21`, the GI50 was 2.75 µM (inactive) in the test on 786-0; 4.22 µM (inactive) in the test on CAKI-1; 2.08 µM (inactive) in the test with EKVX; 2.75 µM in the test on HCT-15; 2.98 µM (inactive) in the test on IGROV-1; 3.24 µM (inactive) in the test on KM12. The GI50 with LOX IMVI is 0.469 µM (active); in the test with M14 it was 2.26 µM (inactive); in the test on MDA-MB-231, 0.221 µM (active); with MDA-MB-435, 0.605 µM (active); in the test with MDA-N, 0.392 µM (active); in the test with NCI-H23 it was 1.36 µM (inactive). The GI50 with NCI-H460 is 5.51 µM (inactive); in the test on OVCAR-3, 0.296 µM (active); with SF-539, 1.95 µM (inactive); with SK-MEL-2, 3.52 µM (inactive); in the test on SN12C, 1.87 µM (inactive); with SW-620, 2.1 µM (inactive). In addition, the results for the GI50 with T47D and in the test with UACC-62 were 0.398 µM (active) and 2.45 µM (inactive), respectively.

With `CCCCC(=O)NC1(c2cc3ccccc3s2)CCCCC1`, the GI50 is > 100 µM (inactive) in the test with 786-0; > 100 µM (inactive) in the test on CAKI-1; > 100 µM (inactive) with EKVX; more than 100 µM with HCT-15; > 100 µM (inactive) in the test with IGROV-1; > 100 µM (inactive) with KM12. Moreover, the GI50 in the test on LOX IMVI, in the test on M14, with MDA-MB-231, in the test with MDA-MB-435, in the test on MDA-N and with NCI-H23 was > 100 µM (inactive) throughout. The GI50 with NCI-H460 is > 100 µM (inactive); in the test on OVCAR-3, > 100 µM (inactive); in the test with SF-539, 33.2 µM (inactive); with SK-MEL-2, > 100 µM (inactive); in the test on SN12C, > 100 µM (inactive); in the test with SW-620, > 100 µM (inactive). The GI50 was > 100 µM (inactive) with T47D and 62.1 µM (inactive) in the test on UACC-62.

Take `O=C1c2sccc2C(=O)c2c(CO)csc21`: the GI50 in the test with 786-0 was 3.94 µM (inactive); in the test with CAKI-1, 15.1 µM (inactive); in the test on EKVX, 6.97 µM (inactive); with HCT-15, 2.49 µM; with IGROV-1, 4.03 µM (inactive); with KM12, 5.02 µM (inactive). For the same compound, the GI50 in the test on LOX IMVI is 2.88 µM (inactive); in the test on M14, 2.21 µM (inactive); with MDA-MB-231, 17.2 µM (inactive); with MDA-MB-435 it was 1.94 µM (inactive); in the test with MDA-N, 1.72 µM (inactive); in the test on NCI-H23 it was 2.07 µM (inactive). Moreover, the GI50 in the test on NCI-H460 is 2.25 µM (inactive); with OVCAR-3, 1.9 µM (inactive); in the test on SF-539, 3.65 µM (inactive); with SK-MEL-2, 2.85 µM (inactive); in the test with SN12C, 6.46 µM (inactive); in the test on SW-620, 6.98 µM (inactive). Moreover, the GI50 in the test on T47D is 4.71 µM (inactive); in the test with UACC-62, 2.52 µM (inactive).

For `NC(=O)c1ncn(C2CCC(CP(=O)(O)O)C2)c1N` (stereo not drawn), the GI50 in the test on 786-0 was > 100 µM (inactive); with CAKI-1, > 100 µM (inactive); with EKVX, > 100 µM (inactive); in the test with HCT-15 it was more than 100 µM; in the test with IGROV-1, > 100 µM (inactive); with KM12, > 100 µM (inactive). Besides, the GI50 in the test with LOX IMVI, in the test with M14, with MDA-MB-231, with MDA-MB-435, in the test on MDA-N and in the test on NCI-H23 was > 100 µM (inactive) each time. The GI50 in the test on NCI-H460, in the test with OVCAR-3, with SF-539, in the test on SK-MEL-2, in the test with SN12C and in the test with SW-620 was > 100 µM (inactive) in each case. Besides, the GI50 in the test with T47D and in the test with UACC-62 was > 100 µM (inactive) throughout.

Consider `O=[N+]([O-])C1(C2([N+](=O)[O-])CCCC2)CCCC1`, for which the GI50 in the test on 786-0 was > 100 µM (inactive); in the test on CAKI-1 it was > 100 µM (inactive); in the test on EKVX it was > 100 µM (inactive); with HCT-15, more than 100 µM; with IGROV-1 it was > 100 µM (inactive); in the test with KM12 it was > 100 µM (inactive). The GI50 with LOX IMVI, in the test on M14, in the test with MDA-MB-231, in the test with MDA-MB-435, in the test with MDA-N and in the test on NCI-H23 was > 100 µM (inactive) throughout. Besides, the GI50 in the test with NCI-H460, in the test on OVCAR-3, in the test on SF-539, in the test with SK-MEL-2, with SN12C and with SW-620 was > 100 µM (inactive) each time. For the same compound, the GI50 in the test with T47D and in the test with UACC-62 was > 100 µM (inactive) throughout.

As to `COCn1cnc2c(=O)nc(SC)n(-c3ccccc3)c21`, the GI50 was > 100 µM (inactive) in the test on 786-0; > 100 µM (inactive) in the test with CAKI-1; > 100 µM (inactive) in the test on EKVX; more than 100 µM in the test on HCT-15; > 100 µM (inactive) in the test on IGROV-1; > 100 µM (inactive) in the test on KM12. The GI50 in the test on LOX IMVI, in the test with M14, with MDA-MB-231, in the test with MDA-MB-435, in the test with MDA-N and in the test with NCI-H23 was > 100 µM (inactive) throughout. Besides, the GI50 in the test with OVCAR-3, with SF-539, with SK-MEL-2, in the test on SN12C, in the test on SW-620 and in the test with T47D was > 100 µM (inactive) throughout. The GI50 with UACC-62 was > 100 µM (inactive).

As for `Cc1nn(-c2ccccc2)c2c1C(c1ccc(Cl)cc1)NC(=S)N2` (stereo not drawn), the GI50 in the test on 786-0 is 15.6 µM (inactive); in the test on CAKI-1 it was 27.2 µM (inactive); in the test on EKVX it was 25.8 µM (inactive); with HCT-15, 17.5 µM; with IGROV-1 it was 12.6 µM (inactive); in the test on KM12 it was 23.1 µM (inactive). The GI50 in the test on LOX IMVI is 16.3 µM (inactive); with M14 it was 21.9 µM (inactive); in the test on MDA-MB-231, 16.5 µM (inactive); in the test with MDA-MB-435 it was 21.5 µM (inactive); with MDA-N it was 29.4 µM (inactive); with NCI-H23, 18.9 µM (inactive). Besides, the GI50 is 23 µM (inactive) in the test with NCI-H460; 32.4 µM (inactive) with OVCAR-3; 18.5 µM (inactive) in the test with SF-539; 17.5 µM (inactive) in the test on SK-MEL-2; 19.1 µM (inactive) with SN12C; 23 µM (inactive) in the test with SW-620. Moreover, the GI50 with T47D was > 100 µM (inactive); in the test on UACC-62 it was 22.3 µM (inactive).

Consider `O=C1CC(c2ccccc2)C2(C(=O)NC(=S)NC2=O)C(c2ccccc2)C1` (stereo not drawn), for which the GI50 was > 75 µM (inactive) in the test with 786-0; > 75 µM (inactive) in the test on CAKI-1; > 75 µM (inactive) in the test on EKVX; more than 75 µM in the test with HCT-15; > 75 µM (inactive) in the test on IGROV-1; > 75 µM (inactive) in the test with KM12. The GI50 in the test on LOX IMVI is > 75 µM (inactive); in the test on M14 it was > 75 µM (inactive); in the test with MDA-MB-231 it was > 75 µM (inactive); in the test with MDA-MB-435 it was 55.8 µM (inactive); with MDA-N, > 75 µM (inactive); in the test with NCI-H23 it was > 75 µM (inactive). Besides, the GI50 in the test on NCI-H460, with OVCAR-3, in the test on SF-539, in the test on SK-MEL-2, in the test with SN12C and with SW-620 was > 75 µM (inactive) throughout. In addition, the GI50 with T47D and with UACC-62 was > 75 µM (inactive) each time.

For the compound `O=C(/C=C/C=C/c1ccccc1)c1ccccc1`, the GI50 with 786-0 was 14.3 µM (inactive); in the test on CAKI-1 it was 17.1 µM (inactive); in the test on EKVX, 15.3 µM (inactive); in the test with HCT-15, 12.2 µM; with IGROV-1, 16.9 µM (inactive); in the test on KM12 it was 14.3 µM (inactive). Also, the GI50 is 15.8 µM (inactive) with LOX IMVI; 18 µM (inactive) in the test with M14; 21.5 µM (inactive) with MDA-MB-231; 17.7 µM (inactive) in the test on MDA-MB-435; 16.2 µM (inactive) in the test on MDA-N; 21.3 µM (inactive) in the test with NCI-H460. The GI50 is 19.2 µM (inactive) in the test on OVCAR-3; 17.3 µM (inactive) in the test with SF-539; 20.8 µM (inactive) with SK-MEL-2; 15.9 µM (inactive) in the test on SN12C; 16.7 µM (inactive) in the test on SW-620; 18.4 µM (inactive) in the test on T47D. For the same compound, the GI50 in the test on UACC-62 was 17.4 µM (inactive).

Regarding `COc1ccc(/C=C/C(=O)/C=C/c2ccc(OC)cc2)cc1`, the GI50 in the test with 786-0 was 46.5 µM (inactive); in the test on CAKI-1, > 100 µM (inactive); in the test on EKVX it was 41.7 µM (inactive); in the test with HCT-15, 47.8 µM; in the test on IGROV-1, 45.6 µM (inactive); in the test with KM12, 24 µM (inactive). Besides, the GI50 is 40.4 µM (inactive) in the test with LOX IMVI; 21.1 µM (inactive) in the test on M14; 89.1 µM (inactive) in the test on MDA-MB-231; 14.6 µM (inactive) with MDA-MB-435; 19 µM (inactive) in the test with MDA-N; > 100 µM (inactive) in the test with NCI-H23. Moreover, the GI50 in the test on NCI-H460 was > 100 µM (inactive); with OVCAR-3, 32.1 µM (inactive); in the test on SF-539 it was 26.4 µM (inactive); in the test with SK-MEL-2, 33.3 µM (inactive); in the test with SN12C, > 100 µM (inactive); in the test with SW-620, 23.7 µM (inactive). Besides, the figures for the GI50 in the test with T47D and with UACC-62 were 55.3 µM (inactive) and > 100 µM (inactive), respectively.

(Values after ChEMBL document CHEMBL1201862, “PubChem BioAssay data set” (2004).)
